Experimental data reported in PMC4700268 (Frontiers in Pharmacology, 2016).
Like-named read-outs stand apart in the source and are kept apart here. One block for each molecule: values may come before it.

Experiments:
hOAT1 = molecular target: T1, hOAT1 (Homo sapiens, UniProt Q4U2R8); design: method as in Ho et al. (2000); settings: ref Ho et al. (2000); read-out: Km in CHO cells stably expressing hOAT1; cited from earlier work
T1 sequence (Q4U2R8 1-563): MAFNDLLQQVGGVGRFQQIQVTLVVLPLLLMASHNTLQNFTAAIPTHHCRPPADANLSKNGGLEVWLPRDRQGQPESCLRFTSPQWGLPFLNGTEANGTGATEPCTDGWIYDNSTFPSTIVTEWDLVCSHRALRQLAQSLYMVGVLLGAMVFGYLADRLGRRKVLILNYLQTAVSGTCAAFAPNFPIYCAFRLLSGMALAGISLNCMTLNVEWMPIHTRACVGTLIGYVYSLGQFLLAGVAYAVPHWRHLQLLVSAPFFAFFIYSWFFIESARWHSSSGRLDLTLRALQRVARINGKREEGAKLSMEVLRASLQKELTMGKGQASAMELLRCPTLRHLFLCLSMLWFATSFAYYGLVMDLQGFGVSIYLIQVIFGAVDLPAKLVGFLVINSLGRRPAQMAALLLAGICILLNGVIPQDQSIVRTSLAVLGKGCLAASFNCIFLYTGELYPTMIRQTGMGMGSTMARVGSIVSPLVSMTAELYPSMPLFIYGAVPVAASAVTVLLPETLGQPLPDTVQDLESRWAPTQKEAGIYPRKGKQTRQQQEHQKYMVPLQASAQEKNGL

[1] = ref Cundy, 1999; Kearney et al., 2005; Delahunty et al., 2006; cited from earlier work
hCNT2 = molecular target: T2, hCNT2 (Homo sapiens, UniProt O43868); experiment: Inhibition of [3H]uridine uptake in hCNT2 transfected MDCK II cells; assay type: in vitro ADME; design: host or cells: MDCK II cells, transient transfection; settings: 1 μM [3H]uridine, 0–1000 μM, 2 min, MDCK II
T2 sequence (O43868 1-658): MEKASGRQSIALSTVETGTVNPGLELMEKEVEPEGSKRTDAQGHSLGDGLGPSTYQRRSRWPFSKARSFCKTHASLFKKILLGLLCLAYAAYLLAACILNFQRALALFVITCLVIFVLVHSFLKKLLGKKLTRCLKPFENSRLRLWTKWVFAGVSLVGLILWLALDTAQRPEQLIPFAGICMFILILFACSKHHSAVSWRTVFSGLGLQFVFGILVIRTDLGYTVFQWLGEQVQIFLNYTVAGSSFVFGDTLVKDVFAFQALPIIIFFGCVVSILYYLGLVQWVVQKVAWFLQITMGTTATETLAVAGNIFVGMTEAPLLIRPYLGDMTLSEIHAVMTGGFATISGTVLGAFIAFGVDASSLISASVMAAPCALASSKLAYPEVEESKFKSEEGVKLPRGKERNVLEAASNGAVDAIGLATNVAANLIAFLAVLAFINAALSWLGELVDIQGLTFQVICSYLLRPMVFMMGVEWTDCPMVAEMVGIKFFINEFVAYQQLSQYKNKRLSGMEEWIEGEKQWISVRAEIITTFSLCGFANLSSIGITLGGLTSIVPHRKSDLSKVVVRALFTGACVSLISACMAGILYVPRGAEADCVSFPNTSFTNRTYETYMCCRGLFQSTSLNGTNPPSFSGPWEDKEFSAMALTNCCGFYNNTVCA
Description: (§1) Inhibitory transport assays were carried out in 24-well plates as described previously ([Mandikova et al., 2013]). Transport assays in HeLa cells transiently transfected with the hOAT1 expression construct were performed 48 h after transfection. Transport assays in MDCK II cells transiently transfected with hOCT2, hCNT2 or hCNT3 were performed 24 h after transfection. The cultivation medium was removed and the cells were washed with transport solution and preincubated for 10 min at 37°C. The standard radiolabeled substrate or tested radioactive antiviral substance dissolved in transport solution was added to the cells and incubated for 2 min. [^3H]PAH (1 μM) was used as a prototypical substrate for OATs, [^3H]MPP^+ (1 μM) for OCTs and [^3H]uridine (1 μM) for CNTs. […] After the designated time period, the incubation was stopped by washing the cells twice with ice-cold solution containing 137 mM NaCl and 10 mM HEPES, pH 7.4. The cells were disintegrated with 0.1 mL of Triton X 0.5% in 100 mM NaOH for 1 h.
(§2) IC50 values were calculated using non-linear regression analysis using GraphPad Prism software (version 6).

hCNT3 = molecular target: T3, hCNT3 (Homo sapiens, UniProt Q9HAS3); experiment: Inhibition of [3H]uridine uptake in hCNT3 transfected MDCK II cells; assay type: in vitro ADME; design: host or cells: MDCK II cells, transient transfection; settings: 1 μM [3H]uridine, 0–1000 μM, 2 min, MDCK II
T3 sequence (Q9HAS3 1-691): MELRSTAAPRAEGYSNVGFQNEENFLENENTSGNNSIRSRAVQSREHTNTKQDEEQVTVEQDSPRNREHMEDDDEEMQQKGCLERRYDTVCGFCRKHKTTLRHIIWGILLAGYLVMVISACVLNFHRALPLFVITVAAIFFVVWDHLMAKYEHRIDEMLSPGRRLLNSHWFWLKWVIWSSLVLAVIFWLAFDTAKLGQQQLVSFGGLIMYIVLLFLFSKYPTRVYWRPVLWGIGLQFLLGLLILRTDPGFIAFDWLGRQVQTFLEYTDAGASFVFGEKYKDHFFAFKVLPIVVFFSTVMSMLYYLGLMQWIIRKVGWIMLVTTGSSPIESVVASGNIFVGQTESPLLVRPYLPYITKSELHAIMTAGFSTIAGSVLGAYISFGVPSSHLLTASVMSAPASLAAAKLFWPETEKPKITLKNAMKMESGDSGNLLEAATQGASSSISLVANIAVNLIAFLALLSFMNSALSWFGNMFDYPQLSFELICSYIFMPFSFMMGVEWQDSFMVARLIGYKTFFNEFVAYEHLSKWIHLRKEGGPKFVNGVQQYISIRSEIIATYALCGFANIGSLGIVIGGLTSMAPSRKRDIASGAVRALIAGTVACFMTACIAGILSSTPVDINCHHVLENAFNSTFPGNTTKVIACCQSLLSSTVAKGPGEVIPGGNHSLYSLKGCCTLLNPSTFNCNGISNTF
Description: as §1, §2

[2] = system: HeLa cells transiently transfected with hOAT1; experiment: MTS cell viability assay in hOAT1 transfected HeLa cells; settings: 24 h, hOAT1 vs empty vector transfected HeLa cells
Description: (§3) The Hela cells were plated in a 96-well plate and transfected with hOAT1 as described above. […] The controls were prepared simultaneously. After 24 h of incubation, the reagent from the kit CellTiter 96 AQueous One Solution Cell Proliferation Assay (CellTiter 96, PROMEGA, USA) was added. After 1.5 h of incubation at 37°C the absorbance was recorded at 490 nm.

[3] = system: HeLa cells transiently transfected with hOAT1
Description: as §3

not read [4] = substrate: C=C1[C@H](CO)[C@@H](O)C[C@@H]1n1cnc2c(=O)[nH]c(N)nc21; experiment: not read; assay type: in vitro ADME, human; settings: other: HeLa cells transiently transfected with hOAT1, 5 min, 37°C
not read [5] = substrate: C=C1[C@H](CO)[C@@H](O)C[C@@H]1n1cnc2c(=O)[nH]c(N)nc21; experiment: not read; settings: 5 min, 37°C

Molecule: Nc1ncnc2c1ncn2CCOCP(=O)(O)O [adefovir]
Km (hOAT1): 23.8 µM
Therapeutic plasma levels achieved in humans [1]: 0.1 µM
Inhibitory effect on hCNT2 (hCNT2): not observed
Inhibitory effect on hCNT3 (hCNT3): not observed
Effect of hOAT1 expression on cytotoxicity (cell viability) [2]: significantly enhanced the cytotoxic effect

Inhibitory effect on hCNT2 (hCNT2): not observed
Inhibitory effect on hCNT3 (hCNT3): not observed
Molecule: Nc1ccn(C[C@@H](CO)OCP(=O)(O)O)c(=O)n1 [cidofovir]
Therapeutic plasma levels achieved in humans [1]: 70 µM
Effect of hOAT1 expression on cytotoxicity (cell viability) [2]: significantly enhanced the cytotoxic effect

Inhibitory effect on hCNT2 (hCNT2): not observed
Inhibitory effect on hCNT3 (hCNT3): not observed
Molecule: C[C@H](Cn1cnc2c(N)ncnc21)OCP(=O)(O)O [tenofovir]
Effect of hOAT1 expression on cytotoxicity (cell viability) [3]: significantly enhanced the cytotoxic effect
Therapeutic plasma levels achieved in humans [1]: 0.5 µM

B1: hOAT1 (Homo sapiens) (protein)
chain: T1 sequence (Q4U2R8 1-563)
notes: host or cells: HeLa cells, transient transfection
Km (not read [4]): 316.5 µM

B2: hCNT3 (Homo sapiens) (protein)
chain: T3 sequence (Q9HAS3 1-691)
Km (not read [5]; other: hCNT3 transfected cells): 99.02 µM

B3: hCNT2 (Homo sapiens) (protein)
chain: T2 sequence (O43868 1-658)
Km (not read [5]; other: hCNT2 transfected cells): 1522.00 µM
